EP0254593B1, “Preparation and uses of interferon-gamma” (KABUSHIKI KAISHA HAYASHIBARA SEIBUTSU KAGAKU KENKYUJO, priority 1986, dated 1988)
Where a name gives a salt, the structure may show the parent alone.

Tests used:
HEp-2 cell = test: Potentialization of cytostatic activity of chemotherapeutics by HuIFN-gamma in vitro; type: cell-based, human; conditions: 2880 min
Description: (§1) An aliquot of RPMI 1640 medium supplemented with 15 v/v % fetal calf serum was added with an HuIFN-gamma prepared by the method in Example B-1(3) to a final concentration of 5, 50 or 500 units/ml, and the mixture was inoculated with a malignant human tumor cell to 5×10^5 cell/ml. The resultant was incubated in 5% CO2 incubator at 37°C for three days. As control, the same amount of an HuIFN-gamma preinactivated by 30-minute incubation at 100°C was added to a fresh preparation of the same culture medium, and the mixture was treated similarly as above. After culture, the viable cell was stained with neutral red in accordance with the method as described in Applied Microbiology, Vol.22, No.4, pp.671-677 (1971). Thereafter, the neutral red was eluted with acidified ethanol, and the number of viable cell was determined with the absorbance of the eluate at 540 nm.
(§2) Cytostatic rate (%) was determined with the following equation: Cytostatic rate (%) = ( 1 -(A)/(B)) × 100 [formula] wherein A designates the number of viable cell in the test system, and B, that in the control.
(§3) One ml aliquots of a nutrient culture medium prepared in accordance with the method in Experiment 2-2(1) was inoculated with 10^6 cells of a human malignant tumor cell, and the mixture was cultured for one day. The resultant culture was added with 50 units of an HuIFN-gamma prepared by the method in Example B-1(3) and/or 0.1 ml of saline containing a chemotherapeutic, and cultured at 37°C for two days. As control, a saline free of HuIFN-gamma and chemotherapeutic was used. After the culture, the cytostatic rate (%) was determined in accordance with the method in Experiment 2-2(1). The concentration of the chemotherapeutics were as follows: nimustine hydrochloride (ACNU), 1.0×10^-6 g/ml; fluorouracil (5-FU), 1.5×10^-8 g/ml; doxorubicin (ADM), 1.0×10^-10 g/ml; mitomycin C (MMC), 2.5×10^-9 g/ml; and vincristine sulfate (VCR), 1.5×10^-10 g/ml.

HLE = test: as above; type: cell-based, human; conditions: 2880 min
Description: as §1, §2, §3

PC-9 = test: as above; type: cell-based, human; conditions: 2880 min
Description: as §1, §2, §3

HeLa = test: as above; type: cell-based, human; conditions: 2880 min
Description: as §1, §2, §3

[1] = tested on: human breast cancer tissue; test: Cytostatic activity on malignant tumors in vivo (tumor weight); design: species or system BALB/c nude mice; conditions: injected once every day for 20 days; dose/kg/day: HuIFN-gamma 50 units, HuIFN-alpha 500 units, TNF 100 units, MMC 1 mg; control 10.8 g
Description: BALB/c nude mice were implanted at their dorsal area with a segment of human breast cancer tissue. From the time when the tumors grew to about 200 mm^3, the nude mice were injected once every day with one or more HuIFN-gamma prepared by the method in Example B-1(3), a lymphokine derived from human lymphoblastoid cell, and/or a chemotherapeutic in saline solution over a period of 20 days.
Thereafter, the nude mice were sacrificed, and the tumors were weighed.
As control, saline was injected similarly as above.

[2] = chemotherapeutic with addition (+) of 50 units HuIFN-gamma, two days, same chemotherapeutic concentrations
[3] = single agent, two days: HuIFN-gamma 50 units, ACNU 1.0×10^-6, 5-FU 1.5×10^-8, ADM 1.0×10^-10, MMC 2.5×10^-9, VCR 1.5×10^-10 g/ml

| SMILES | Cytostatic rate (%) (HEp-2 cell; [2]) | Cytostatic rate (%) (HEp-2 cell; [3]) | Cytostatic rate (%) (HLE; [2]) | Cytostatic rate (%) (HLE; [3]) | Cytostatic rate (%) (PC-9; [2]) | Cytostatic rate (%) (PC-9; [3]) | Cytostatic rate (%) (HeLa; [2]) | Cytostatic rate (%) (HeLa; [3]) | Tumor [1] [g] |
| --- | --- | --- | --- | --- | --- | --- | --- | --- | --- |
| O=c1[nH]cc(F)c(=O)[nH]1 [Example 5-FU, fluorouracil] | 67 | 8 | 71 | 8 | 68 | 10 | 70 | 12 | – |
| CO[C@@]12[C@H](COC(N)=O)C3=C(C(=O)C(C)=C(N)C3=O)N1C[C@@H]1N[C@@H]12 [MMC, mitomycin C] | 61 | 10 | 65 | 12 | 64 | 5 | 62 | 7 | 5.1 ± 0.4 |
| CC[C@]1(O)C[C@H]2CN(CCc3c([nH]c4ccccc34)[C@@](C(=O)OC)(c3cc4c(cc3OC)N(C=O)[C@H]3[C@@](O)(C(=O)OC)[C@H](OC(C)=O)[C@]5(CC)C=CCN6CC[C@]43[C@@H]65)C2)C1 [VCR, vincristine sulfate] | 58 | 5 | 58 | 10 | 66 | 8 | 65 | 10 | – |
| Cc1ncc(CNC(=O)N(CCCl)N=O)c(N)n1 [ACNU, nimustine hydrochloride] | 54 | 4 | 63 | 5 | 65 | 2 | 72 | 5 | – |
| COc1cccc2c1C(=O)c1c(O)c3c(c(O)c1C2=O)C[C@@](O)(C(=O)CO)C[C@@H]3O[C@H]1C[C@H](N)[C@H](O)[C@H](C)O1 [ADM, doxorubicin] | 59 | 13 | 62 | 7 | 72 | 6 | 64 | 17 | – |
